One experiment addresses PARP-1 enzyme (Homo sapiens (Human), UniProt P09874). Description: PARP-1 enzyme activity test. It is filed as biochemical. The method, then: PARP-1 chemical […] detection kit was purchased from BPS Bioscience. The histone solution in the kit was diluted 5× with 1×PBS, and 25 μL of the diluted histone solution was added to a microwell plate and incubated overnight at 4° C. After the incubation, the plate was washed three times with PBST (0.05% Tween-20). 100 μL of the blocking solution was added to the microwell plate and incubated at 25° C. for 90 minutes. After the incubation, the plate was washed three times with PBST. 2.5 μL of compounds at different concentrations diluted in test buffer and 12.5 μL of substrate mixed solution (1.25 μL 10×PARP test buffer; 1.25 μL 10×PARP test mixed solution; 2.5 μL Activated DNA, 7.5 μL double-distilled water) were added to the microwell plate. The PARP-1 enzyme was diluted to 2 ng/μL, 10 μL of the diluent was added to the microwell plate, and the reaction system was incubated at 25° C. for 60 minutes.
After the incubation, the plate was washed three times with PBST. Streptavidin-HRP was diluted 50× with a blocking solution, and 25 μL of the diluent was added to the microwell plate and incubated at 25° C. for 30 minutes. After the incubation, the plate was washed three times with PBST. ELISA ECL substrate A and substrate B were mixed at a ratio of 1:1 (v/v), 50 μL of the mixture was added to the microwell plate, and the chemiluminescence value was read.
The inhibition rate was calculated according to formula 1, where RLUsample was the readout of the compound well, RLUmax was the readout of the solvent control well, and RLUmin was the readout of the control well without the PARP-1 enzyme. Curve fitting was performed by four parameters (log(inhibitor) vs. response—Variable slope) using GraphPad Prism software, and the IC50 value was calculated.

For a further experiment, the system named is MDA-MB-436 cells. Description: MDA-MB-436 cell activity test. The format is cell-based. The conditions noted are these: Homo sapiens; for IC50: MDA-MB-436, 168 h, 7 days incubation, CellTiter-Glo; for inhibition at 10 µM: MDA-MB-436 cells, read-out: Max inh. % 10 μM. The method, then:
Breast tumor cells MDA-MB-436 were purchased from ATCC, the culture medium was Leibovitz's L-15+10% FBS, and the cells were cultured in a CO2-free incubator at 37° C. On day 1, the cells in the exponential growth phase were collected, and the cell suspension was adjusted to 4000 cells/135 μL with the culture medium. 135 μL of the cell suspension was added to each well of a 96-well cell culture plate and incubated overnight. On day 2, compounds at different concentrations were added, and the plate was placed in the incubator and incubated for 7 days. After the incubation was completed, according to operation instructions for a CellTiter-Glo kit (Promega, G7573), 75 μL of CTG solution, which was already pre-melted and equilibrated to room temperature, was added to each well, and the mixture was uniformly mixed for 2 min using a microplate shaker. The plate was placed at room temperature for 10 min, and then […] were measured using an Envision2104 plate reader (PerkinElmer). The inhibition rate was calculated using formula (1), where RLUcompound was the readout of the drug treated group, RLUcontrol was the average value of the vehicle control group, and RLUblank was the average value of the cell-free well. The IC50 value was calculated using GraphPad Prism software.
A general note: ATP-based viability assays read luminescence as a measure of living cells.

Chain of PARP-1 enzyme (P09874 whole entry): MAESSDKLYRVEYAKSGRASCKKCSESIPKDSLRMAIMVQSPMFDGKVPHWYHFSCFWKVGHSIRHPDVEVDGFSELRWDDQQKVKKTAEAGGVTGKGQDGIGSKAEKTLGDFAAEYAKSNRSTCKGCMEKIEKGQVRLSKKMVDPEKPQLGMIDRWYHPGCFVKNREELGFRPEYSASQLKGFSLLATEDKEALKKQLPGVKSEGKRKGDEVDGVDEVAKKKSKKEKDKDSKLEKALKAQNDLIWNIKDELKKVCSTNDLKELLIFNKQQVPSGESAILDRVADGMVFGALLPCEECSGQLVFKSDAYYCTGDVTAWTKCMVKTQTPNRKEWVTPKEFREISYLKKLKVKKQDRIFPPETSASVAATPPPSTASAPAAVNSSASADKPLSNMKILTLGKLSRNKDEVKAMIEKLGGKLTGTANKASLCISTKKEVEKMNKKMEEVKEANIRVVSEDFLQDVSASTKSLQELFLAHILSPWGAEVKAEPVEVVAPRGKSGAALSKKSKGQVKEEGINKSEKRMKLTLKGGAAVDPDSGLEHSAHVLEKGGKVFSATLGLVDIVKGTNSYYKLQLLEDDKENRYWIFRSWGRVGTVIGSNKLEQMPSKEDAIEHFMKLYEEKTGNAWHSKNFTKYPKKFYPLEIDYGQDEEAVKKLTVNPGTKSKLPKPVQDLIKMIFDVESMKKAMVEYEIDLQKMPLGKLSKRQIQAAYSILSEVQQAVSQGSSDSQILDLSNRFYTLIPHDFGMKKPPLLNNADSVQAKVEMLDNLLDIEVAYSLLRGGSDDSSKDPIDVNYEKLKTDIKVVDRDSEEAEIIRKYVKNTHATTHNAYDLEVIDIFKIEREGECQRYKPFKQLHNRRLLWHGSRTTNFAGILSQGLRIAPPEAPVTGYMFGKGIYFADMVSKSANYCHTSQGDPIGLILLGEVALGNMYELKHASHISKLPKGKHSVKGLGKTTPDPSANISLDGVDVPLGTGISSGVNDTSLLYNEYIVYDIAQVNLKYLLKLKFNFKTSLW

As usually defined, the IC50 is the concentration that gives 50% inhibition. A lower IC50 goes with greater potency. The compound `CCc1cc2ncc(CN3CC4CN(c5ccc(C(=O)NC)nc5)CC4C3)cc2[nH]c1=O` (stereo not drawn) [Compound 1, 5-(5-((7-ethyl-6-oxo-5,6-dihydro-1,5-naphthyridin-3-yl)methyl)hexahydropyrrolo [3,4-c]pyrrol-2(1H)-yl)-N-methylpicolinamide] registered an IC50 at PARP-1 enzyme of 0.8 nM. Same read-out and setting: to `CCc1cc2ncc(CN3C4CCC3CN(c3ccc(C(=O)NC)nc3)C4)cc2[nH]c1=O` [Compound 3, 5-(8-((7-ethyl-6-oxo-5,6-dihydro-1,5-naphthyridin-3-yl)methyl)-3,8-diazabicyclo[3.2.1]octan-3-yl)-N-methylpicolinamide] belongs 1.6 nM. Same read-out and setting: the same measure for `CCc1cc2ncc(CN3CC(Nc4ccc(C(=O)NC)nc4)C3)cc2[nH]c1=O` [Compound 6, 5-((1-((7-ethyl-6-oxo-5,6-dihydro-1,5-naphthyridin-3-yl)methyl)azetidin-3-yl)amino)-N-methylpicolinamide]: 0.51 nM; for `CCc1cc2ncc(CN3CC4(C3)CN(c3ccc(C(=O)NC)nc3)C4)cc2[nH]c1=O` [Compound 8, 5-(6-((7-ethyl-6-oxo-5,6-dihydro-1,5-naphthyridin-3-yl)methyl)-2,6-diazaspiro[3.3]heptan-2-yl)-N-methylpicolinamide]: 0.78 nM; for `CCc1cc2ncc(CN3CC[C@@H](Nc4ccc(C(=O)NC)nc4)C3)cc2[nH]c1=O` [Compound 19, (R)-5-((1-((7-ethyl-6-oxo-5,6-dihydro-1,5-naphthyridin-3-yl)methyl)pyrrolidin-3-yl)amino)-N-methylpicolinamide]: 0.36 nM. `CCc1cc2ncc(CN3CC=C(c4ccc(C(=O)Nc5cnn(C)c5)nc4)CC3)cc2[nH]c1=O` [Compound 20, 1′-((7-ethyl-6-oxo-5,6-dihydro-1,5-naphthyridin-3-yl)methyl)-N-(1-methyl-1H-pyrazol-4-yl)-1′,2′,3′,6′-tetrahydro-[3,4′-bipyridine]-6-carboxamide] displayed an IC50 against PARP-1 enzyme of 0.26 nM. Also, in the experiment with MDA-MB-436 cells, the IC50 is 0.7 nM and the inhibition at 10 µM turned out to be 91.8%.

`CCc1cc2ncc(CN3CC=C(c4ccc(NC(=O)C5CC5)nc4)CC3)cc2[nH]c1=O` [Compound 22, N-(1′-((7-ethyl-6-oxo-5,6-dihydro-1,5-naphthyridin-3-yl)methyl)-1′,2′,3′,6′-tetrahydro-[3,4′-bipyridin]-6-yl)cyclopropanecarboxamide]: it took 0.31 nM to reach half-maximal inhibition on PARP-1 enzyme (IC50). Moreover, in the experiment with MDA-MB-436 cells, the IC50 was found to be 2.2 nM and the inhibition at 10 µM was 89.1%.

Regarding `CCc1cc2ncc(CN3CC=C(c4ccc(C(=O)NC5CC5)nc4)CC3)cc2[nH]c1=O` [Compound 25, N-cyclopropyl-1′-((7-ethyl-6-oxo-5,6-dihydro-1,5-naphthyridin-3-yl)methyl)-1′,2′,3′,6′-tetrahydro-[3,4′-bipyridine]-6-carboxamide], the IC50 on PARP-1 enzyme amounted to 0.36 nM. `CCc1cc2ncc(CN3CC=C(c4ccc(C(=O)N[C@@H]5C[C@@H]5F)nc4)CC3)cc2[nH]c1=O` [Compound 26, 1′-((7-ethyl-6-oxo-5,6-dihydro-1,5-naphthyridin-3-yl)methyl)-N-((1R,2S)-2-fluorocyclopropyl)-1′,2′,3′,6′-tetrahydro-[3,4′-bipyridine]-6-carboxamide] returned an IC50 against PARP-1 enzyme of 0.41 nM. For the same compound, in the experiment on MDA-MB-436 cells, the midpoint of inhibition, the IC50, lay at 1 nM and the inhibition at 10 µM amounted to 90.9%. In turn, `CCc1cc2ncc(CN3CC=C(c4cn5cc(C)nc5cn4)CC3)cc2[nH]c1=O` [Compound 27, 3-ethyl-7-((4-(2-methylimidazo[1,2-a]pyrazin-6-yl)-3,6-dihydropyridin-1(2H)-yl)methyl)-1,5-naphthyridin-2(1H)-one] returned an IC50 against PARP-1 enzyme of 0.41 nM. On the same count and under the same terms, the same measure for `CCc1cc2ncc(C=C3CCN(c4ccc(C(=O)NC)nc4)CC3)cc2[nH]c1=O` [Compound 28, 5-(4-((7-ethyl-6-oxo-5,6-dihydro-1,5-naphthyridin-3-yl)methylene)piperidin-1-yl)-N-methylpicolinamide]: 0.33 nM. `CCc1cc2ncc(CC3CCN(c4ccc(C(=O)NC)nc4)CC3)cc2[nH]c1=O` [Compound 29, 5-(4-((7-ethyl-6-oxo-5,6-dihydro-1,5-naphthyridin-3-yl)methyl)piperidin-1-yl)-N-methylpicolinamide] gave an IC50 against PARP-1 enzyme of 0.95 nM. On PARP-1 enzyme, `CCc1cc2ncc(CN3CC=C(c4ccc(NC(=O)c5cnn(C)c5)nc4)CC3)cc2[nH]c1=O` [Compound 30, N-(1′-((7-ethyl-6-oxo-5,6-dihydro-1,5-naphthyridin-3-yl)methyl)-1′,2′,3′,6′-tetrahydro-[3,4′-bipyridin]-6-yl)-1-methyl-1H-pyrazole-4-carboxamide] returned an IC50 of 0.26 nM. Besides, in the experiment on MDA-MB-436 cells, the IC50 stood at 0.7 nM and the inhibition at 10 µM was found to be 91.8%.

For `CCc1cc2ncc(C=C3CCN(c4ccc(C(=O)Nc5cnn(C)c5)nc4)CC3)cc2[nH]c1=O` [Compound 32, 5-(4-((7-ethyl-6-oxo-5,6-dihydro-1,5-naphthyridin-3-yl)methylene)piperidin-1-yl)-N-(1-methyl-1H-pyrazol-4-yl)picolinamide], the IC50 against PARP-1 enzyme is 0.19 nM. In the experiment on MDA-MB-436 cells, the IC50 was 13.8 nM and the inhibition at 10 µM worked out at 99.1%. For `CCc1cc2ncc(CN3CC=C(c4cn5cc(C(F)(F)F)nc5cn4)CC3)cc2[nH]c1=O` [Compound 33, 3-ethyl-7-((4-(2-(trifluoromethyl)imidazo[1,2-a]pyrazin-6-yl)-3,6-dihydropyridin-1(2H)-yl)methyl)-1,5-naphthyridin-2(1H)-one], in that order: 0.71 nM, 1.9 nM and 77.6%.
